Consider one compound from patent US20180256623A1, “COMPOSITIONS AND METHOD FOR REGULATING ADIPOSE TISSUE LIPOLYSIS, INSULIN-RESISTANCE, AND HYPERGLYCEMIA” (University of Virginia Patent Foundation, priority 2015, published 2018).

Structures are written as SMILES.

Experiment [1] concerns the target T1, hormone-sensitive lipase (Homo sapiens, UniProt Q05469).
T1 sequence (Q05469 1-1076): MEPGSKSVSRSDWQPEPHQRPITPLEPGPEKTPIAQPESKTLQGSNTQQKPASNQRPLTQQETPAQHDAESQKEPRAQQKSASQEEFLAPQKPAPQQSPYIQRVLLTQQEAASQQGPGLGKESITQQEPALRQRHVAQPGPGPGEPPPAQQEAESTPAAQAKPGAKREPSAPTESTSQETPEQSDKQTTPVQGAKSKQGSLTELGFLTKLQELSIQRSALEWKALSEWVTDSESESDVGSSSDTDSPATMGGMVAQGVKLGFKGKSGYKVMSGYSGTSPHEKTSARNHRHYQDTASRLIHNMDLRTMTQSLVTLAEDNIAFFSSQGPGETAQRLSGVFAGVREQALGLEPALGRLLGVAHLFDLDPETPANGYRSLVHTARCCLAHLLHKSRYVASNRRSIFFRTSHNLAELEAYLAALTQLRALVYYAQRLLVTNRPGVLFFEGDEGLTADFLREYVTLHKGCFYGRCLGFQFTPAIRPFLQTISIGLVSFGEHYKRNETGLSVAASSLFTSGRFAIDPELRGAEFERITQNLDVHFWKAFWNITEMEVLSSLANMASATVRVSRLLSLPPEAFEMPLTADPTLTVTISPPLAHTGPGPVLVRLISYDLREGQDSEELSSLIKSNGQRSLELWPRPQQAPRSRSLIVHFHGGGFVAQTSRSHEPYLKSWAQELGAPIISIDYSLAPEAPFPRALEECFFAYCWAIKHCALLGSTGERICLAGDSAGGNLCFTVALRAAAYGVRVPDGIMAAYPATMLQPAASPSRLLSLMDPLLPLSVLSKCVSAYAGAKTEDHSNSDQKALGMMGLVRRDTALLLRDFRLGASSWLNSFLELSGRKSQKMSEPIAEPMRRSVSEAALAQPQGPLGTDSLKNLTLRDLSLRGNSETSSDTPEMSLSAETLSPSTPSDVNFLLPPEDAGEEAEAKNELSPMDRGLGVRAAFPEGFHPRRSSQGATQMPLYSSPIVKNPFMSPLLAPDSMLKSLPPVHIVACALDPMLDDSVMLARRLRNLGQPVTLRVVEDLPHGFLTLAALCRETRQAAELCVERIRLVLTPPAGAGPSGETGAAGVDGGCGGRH
To be noted: cited from earlier work.

For experiment [2], the target named is T2, lipoprotein lipase (Homo sapiens, UniProt P06858).
T2 sequence (P06858 28-475): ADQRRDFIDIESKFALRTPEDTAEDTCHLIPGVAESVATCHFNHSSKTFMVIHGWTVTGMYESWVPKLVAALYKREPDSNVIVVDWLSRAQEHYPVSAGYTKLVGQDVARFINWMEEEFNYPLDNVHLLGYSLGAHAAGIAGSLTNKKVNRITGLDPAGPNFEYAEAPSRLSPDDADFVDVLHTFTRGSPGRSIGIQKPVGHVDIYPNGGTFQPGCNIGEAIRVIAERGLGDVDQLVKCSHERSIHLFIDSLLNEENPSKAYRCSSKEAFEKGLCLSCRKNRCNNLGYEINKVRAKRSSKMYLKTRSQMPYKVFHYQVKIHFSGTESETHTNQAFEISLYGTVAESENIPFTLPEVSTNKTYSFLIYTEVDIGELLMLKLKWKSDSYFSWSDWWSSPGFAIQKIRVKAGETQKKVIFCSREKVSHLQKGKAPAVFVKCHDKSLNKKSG
The settings on record: cited from earlier work.

The subject of experiment [3] is mice. As to the kind of experiment: Rodent hemorrhage and trauma (surgery) model. The format is in vivo. An excerpt:
The acute changes in blood glucose that occur in a T1DM model were invesitaged. Streptozotocin (STZ)-treated mice were subjected to a hemorrhage protocol to mimic surgical induction of the neuroendocrine stress response in humans (FIG. 1). Adipose tissue lipolysis was controlled via the addition of the small molecule inhibitor Atglistatin. The extent of glycemic excursions and ketogenesis was followed.
Separate rodent models of diabetes were employed to investigate the unique co-morbidities associated with T1DM. For the T1DM model, C57BL/6J mice were subjected to low dose injection of streptozotocin (50 mg/kg) at 6-8 weeks of age (see the website for the Diabetic Complications Consortium).
The protocol for modeling surgery-induced stress has been adapted from several sources and is available to an art worker. Although few human patients undergo extensive hemorrhage during elective surgeries, this rodent protocol is a consistent and reproducible experimental model for surgical stress in humans. Briefly, on the day of the surgery 10-12 week old male mice were fasted for six hours prior to surgery and pre-treated with or without lmg/kg body weight of Atglistatin at four hours prior to surgery to prevent adipose tissue lipolysis. Mice were then anesthetized by continuous inhalation of isoflurane and subjected to a 2-cm ventral midline laparotomy. The abdomen will then be sutured, a catheter was placed in the right femoral artery and mice were hemorrhaged from the left femoral artery to a mean arterial pressure (MAP) of 35-40 mm Hg (T0′). Blood glucose and ketone levels were monitored during the surgery. The mice were followed until 30′ post-hemorrhage and were maintained continuously under anesthesia. At the termination of the experiment, blood was collected to measure serum catecholamines, insulin, cytokines, ketones and glycerol levels, among other possible metabolic parameters.
Rodent hemorrhage and trauma model—To activate the adaptive stress response and emulate the acute hyperglycemia and insulin resistance that develops after surgery, trauma and hemorrhage mice as previously described will be used. Briefly, 10-12 week old male mice are fasted for 4-6 hours prior to surgery and 4 hours before surgery, Atglistatin (1 mg/kg) or vehicle will be injected intraperitoneally. Mice are anesthetized by continuous inhalation of 1.5% isoflurane and 98.5% 02 throughout all procedures. After the mice are shaved, surgery will begin with a 2-cm ventral midline laparotomy. The abdomen is then sutured and the wounds bathed with 1% lidocaine to reduce pain. A catheter is placed in the right femoral artery for monitoring mean arterial pressure (MAP). To replicate the blood loss during a surgery, mice are hemorrhaged from the left femoral artery to an MAP of 35-40 mmHg over a 10-minute period. Once the MAP reaches 35-40 mmHg, the […]. […] Control mice are subjected to trauma alone. Mice are subjected to anesthesia, laparotomy, and catheterization. […] Blood glucose levels are monitored during the surgery.

The target of experiment [4] is PNPLA7 (Homo sapiens, UniProt Q6ZV29). The settings on record: cited from earlier work.
Experiment [5] relates to lipolysis by ATGL. The settings on record: in vitro; cited from earlier work.

Chain of PNPLA7 (Q6ZV29 whole entry, species assumed): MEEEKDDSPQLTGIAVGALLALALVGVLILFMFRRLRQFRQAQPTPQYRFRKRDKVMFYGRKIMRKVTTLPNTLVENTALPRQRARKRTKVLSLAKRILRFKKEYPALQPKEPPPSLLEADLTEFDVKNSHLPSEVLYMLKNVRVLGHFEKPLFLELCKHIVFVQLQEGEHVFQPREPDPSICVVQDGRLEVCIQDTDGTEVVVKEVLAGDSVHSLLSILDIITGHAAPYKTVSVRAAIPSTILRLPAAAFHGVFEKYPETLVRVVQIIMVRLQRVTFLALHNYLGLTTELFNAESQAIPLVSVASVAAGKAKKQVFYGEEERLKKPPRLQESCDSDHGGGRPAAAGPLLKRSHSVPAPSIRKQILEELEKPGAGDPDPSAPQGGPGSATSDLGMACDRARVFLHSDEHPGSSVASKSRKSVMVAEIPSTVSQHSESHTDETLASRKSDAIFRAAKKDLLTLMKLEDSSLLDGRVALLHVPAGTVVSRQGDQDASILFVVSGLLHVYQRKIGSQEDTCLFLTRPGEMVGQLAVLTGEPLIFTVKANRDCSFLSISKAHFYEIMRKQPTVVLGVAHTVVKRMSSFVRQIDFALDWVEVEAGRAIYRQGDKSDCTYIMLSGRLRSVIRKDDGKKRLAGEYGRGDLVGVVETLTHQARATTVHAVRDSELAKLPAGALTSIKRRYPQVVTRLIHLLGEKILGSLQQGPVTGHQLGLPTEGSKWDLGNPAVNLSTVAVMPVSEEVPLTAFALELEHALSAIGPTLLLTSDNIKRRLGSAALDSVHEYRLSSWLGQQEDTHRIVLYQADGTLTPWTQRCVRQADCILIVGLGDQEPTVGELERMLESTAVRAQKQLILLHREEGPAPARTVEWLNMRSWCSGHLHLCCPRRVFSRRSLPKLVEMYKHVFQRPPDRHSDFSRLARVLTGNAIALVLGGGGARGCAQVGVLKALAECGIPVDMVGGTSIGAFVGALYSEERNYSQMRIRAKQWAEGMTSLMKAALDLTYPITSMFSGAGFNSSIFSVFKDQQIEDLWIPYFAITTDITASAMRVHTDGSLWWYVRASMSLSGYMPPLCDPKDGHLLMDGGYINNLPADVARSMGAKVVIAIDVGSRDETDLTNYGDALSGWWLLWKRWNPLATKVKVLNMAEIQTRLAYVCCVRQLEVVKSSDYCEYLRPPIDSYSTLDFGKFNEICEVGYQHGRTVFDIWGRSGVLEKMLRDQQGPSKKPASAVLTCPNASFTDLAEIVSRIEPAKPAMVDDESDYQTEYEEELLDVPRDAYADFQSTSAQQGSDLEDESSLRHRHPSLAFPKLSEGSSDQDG

For `CN(C)C(=O)Nc1cccc(-c2ccc(N(C)C)cc2)c1` [Atglistatin, N′-[4′-(dimethylamino) [1,1′-biphenyl]-3-yl]-N,N-dimethyl-urea], the “inhibition of hormone-sensitive lipase” value in experiment [1] is reported as “does not inhibit”. Also, in experiment [2], the “inhibition of lipoprotein lipase” value was “does not inhibit”. Further, the “adipose tissue lipolysis as assessed by serum glycerol levels” value in experiment [3] (control mice, pre-treated with lmg/kg body weight four hours prior to surgery, FIG. 2B) is “attenuating adipose tissue lipolysis”. For the same compound, the “circulating glycerol (lipolysis)” value in experiment [3] (mice, Atglistatin 1 mg/kg intraperitoneally 4 hours before surgery) is reported as “reduction in circulating glycerol”. The hemorrhage-induced hyperglycemia entry in experiment [3] (mice, Atglistatin 1 mg/kg intraperitoneally 4 hours before surgery, FIG. 3A) is reported as “effective in preventing hemorrhage-induced hyperglycemia”. Also, the “insulin resistance in adipose tissue and skeletal muscle” value in experiment [3] (mice, Atglistatin 1 mg/kg intraperitoneally 4 hours before surgery, FIG. 3B) was “attenuation of insulin resistance in adipose tissue and skeletal muscle”. Further, the stress-induced lipolysis entry in experiment [3] (pharmacological inhibition of ATGL) was “largely blocks stress-induced lipolysis”. Also, the “inhibition of PNPLA7” value in experiment [4] is “does not inhibit”. For the same compound, the “lipolysis by ATGL (fatty acid mobilization)” value in experiment [5] was “blocks lipolysis”.
